Measured values: patent US20260297081A1, “COMPOUNDS AND METHODS OF TREATING CANCERS” (Cullgen Inc., priority 2023, published 2026)

Assays:
Assay type in all cases: cell-based
Calu-1 cells = assay: Anti-proliferation (viability) of NSCLC Calu-1 cells, 3 days (Table 7, FIG. 2B); conditions: Homo sapiens, 72 h; Calu-1 cells, 3 days, 10-point serial dilution; read-out: GI IC50 in Calu-1
Summary of the method: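 Viability is read after treatment with compounds titrated over ten serial dilution points, with exposure lasting three days for the NSCLC line and six days for the breast cancer line.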

MCF7 cells = assay: Anti-proliferation (viability) of MCF7 cells (Table 7, FIG. 2B); conditions: Homo sapiens, MCF7, MCF7 cells, 3-6 days, 10-point serial dilution; read-out: GI IC50 in MCF-7
CDK4 = CDK4 (Homo sapiens, UniProt P11802+Q16531); assay: CDK4 percentage degradation in Calu-1 cells (Table 6); design: Cells that express cyclin D1-3 and CDK4/6 proteins were treated with heterobifunctional compounds; endogenous in cells; host or cells: Calu-1; conditions: 16 hours; for inhibition at 0.04 µM: 40 nM; for inhibition at 0.2 µM: 200 nM
Summary of the method: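 Calu-1 cells exposed to heterobifunctional compounds at 40 nM or 200 nM for 16 h. Cyclin D1 and CDK4 levels measured by Western blot of RIPA lysates (BCA-normalised loading), bands quantified by densitometry and expressed as percentage degradation.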

Sequence of CDK4 (P11802 2-303 limits assumed): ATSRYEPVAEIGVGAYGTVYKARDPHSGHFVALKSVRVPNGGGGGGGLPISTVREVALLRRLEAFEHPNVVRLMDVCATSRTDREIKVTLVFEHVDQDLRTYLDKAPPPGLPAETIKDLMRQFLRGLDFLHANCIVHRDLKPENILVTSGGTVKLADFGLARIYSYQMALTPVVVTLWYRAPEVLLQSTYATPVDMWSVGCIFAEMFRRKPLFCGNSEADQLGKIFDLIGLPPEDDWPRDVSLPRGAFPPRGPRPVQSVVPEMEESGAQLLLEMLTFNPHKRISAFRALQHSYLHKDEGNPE
Sequence of CDK4 (P24385 whole entry partner): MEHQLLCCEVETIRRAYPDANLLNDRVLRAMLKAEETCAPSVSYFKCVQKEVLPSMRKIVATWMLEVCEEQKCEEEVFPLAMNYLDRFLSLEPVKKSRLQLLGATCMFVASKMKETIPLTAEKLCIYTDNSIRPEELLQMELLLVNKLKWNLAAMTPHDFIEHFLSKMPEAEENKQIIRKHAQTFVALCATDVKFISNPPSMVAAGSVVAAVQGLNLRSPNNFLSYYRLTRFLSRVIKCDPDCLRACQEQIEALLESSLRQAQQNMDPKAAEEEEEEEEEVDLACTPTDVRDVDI
Sequence of CDK4 (Q16531 2-1140 limits assumed): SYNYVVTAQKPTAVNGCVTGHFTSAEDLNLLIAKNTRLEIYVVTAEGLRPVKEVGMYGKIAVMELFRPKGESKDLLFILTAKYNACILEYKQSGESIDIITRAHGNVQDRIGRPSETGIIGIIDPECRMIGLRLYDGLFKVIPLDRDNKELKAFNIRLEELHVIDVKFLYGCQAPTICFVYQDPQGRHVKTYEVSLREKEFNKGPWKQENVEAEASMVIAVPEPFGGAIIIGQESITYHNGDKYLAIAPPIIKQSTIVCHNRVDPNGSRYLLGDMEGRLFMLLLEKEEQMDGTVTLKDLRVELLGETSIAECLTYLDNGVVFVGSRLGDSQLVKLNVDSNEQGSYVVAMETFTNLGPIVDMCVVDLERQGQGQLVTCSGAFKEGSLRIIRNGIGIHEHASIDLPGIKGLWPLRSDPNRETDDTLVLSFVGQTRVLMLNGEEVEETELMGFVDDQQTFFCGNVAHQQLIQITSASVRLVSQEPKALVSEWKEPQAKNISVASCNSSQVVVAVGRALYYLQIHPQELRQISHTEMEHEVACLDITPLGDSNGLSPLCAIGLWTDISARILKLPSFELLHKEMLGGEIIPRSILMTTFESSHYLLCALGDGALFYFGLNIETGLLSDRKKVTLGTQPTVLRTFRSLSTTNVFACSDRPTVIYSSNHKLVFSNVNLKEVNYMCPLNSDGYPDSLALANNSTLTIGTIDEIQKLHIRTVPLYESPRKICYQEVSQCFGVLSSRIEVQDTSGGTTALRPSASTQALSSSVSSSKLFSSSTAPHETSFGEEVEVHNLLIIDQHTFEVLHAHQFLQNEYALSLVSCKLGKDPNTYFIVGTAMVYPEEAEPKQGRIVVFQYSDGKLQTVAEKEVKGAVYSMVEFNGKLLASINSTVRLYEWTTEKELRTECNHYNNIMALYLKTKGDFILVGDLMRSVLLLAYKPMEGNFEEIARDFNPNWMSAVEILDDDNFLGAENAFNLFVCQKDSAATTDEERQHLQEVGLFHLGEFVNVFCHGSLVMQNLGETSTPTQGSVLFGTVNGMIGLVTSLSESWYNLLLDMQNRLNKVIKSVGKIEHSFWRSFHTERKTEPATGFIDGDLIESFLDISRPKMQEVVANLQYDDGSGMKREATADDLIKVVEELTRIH

SMILES	IC50 (Calu-1 cells) [µM]	IC50 (MCF7 cells) [µM]	inhibition at 0.04 µM (CDK4) [%]	inhibition at 0.2 µM (CDK4) [%]
CNc1ccc(C(=O)Nc2ccc(N(C)C)nn2)c(NC2CC(CNC(=O)C(C)(C)N3CCN(c4ccc(Nc5ncc6c(C)c(C(C)=O)c(=O)n(C7CCCC7)c6n5)nc4)CC3)C2)n1 (stereo not shown) [CPD-167, 2-((3-((2-(4-(6-((6-acetyl-8-cyclopentyl-5-methyl-7-oxo-7,8-dihydropyrido[2,3-d]pyrimidin-2-yl)amino)pyridin-3-yl)piperazin-1-yl)-2-methylpropanamido)methyl)cyclobutyl)amino)-N-(6-(dimethylamino)pyridazin-3-yl)-6-(methylamino)nicotinamide]	≤ 0.01	< 0.05	> 80	> 80
CNc1ccc(C(=O)Nc2nc(C)c(C)s2)c(NCCCCCCCNC(=O)CN2CCN(c3ccc(Nc4ncc5c(C)c(C(C)=O)c(=O)n(C6CCCC6)c5n4)nc3)CC2)n1 [CPD-4, 2-((7-(2-(4-(6-((6-acetyl-8-cyclopentyl-5-methyl-7-oxo-7,8-dihydropyrido[2,3-d]pyrimidin-2-yl)amino)pyridin-3-yl)piperazin-1-yl)acetamido)heptyl)amino)-N-(4,5-dimethylthiazol-2-yl)-6-(methylamino)nicotinamide]	0.01 to 0.05	0.05 to 0.1	50 to 80	–
[2H]C([2H])([2H])Nc1ccc(C(=O)Nc2cc(C)n(C)n2)c(NC2CC(CNC(=O)CN3CCN(c4ccc(Nc5ncc6c(C)c(C(C)=O)c(=O)n(C7CCCC7)c6n5)nc4)CC3)C2)n1 (stereo not shown) [CPD-206, 2-((3-((2-(4-(6-((6-acetyl-8-cyclopentyl-5-methyl-7-oxo-7,8-dihydropyrido[2,3-d]pyrimidin-2-yl)amino)pyridin-3-yl)piperazin-1-yl)acetamido)methyl)cyclobutyl)amino)-N-(1,5-dimethyl-1H-pyrazol-3-yl)-6-((methyl-d3)amino)nicotinamide]	≤ 0.01	> 0.1	50 to 80	50 to 80
CNc1ccc(C(=O)Nc2cccc(C3CC3)n2)c(NC2CC3(C2)CN(C(=O)C2(CN4CCN(c5ccc(Nc6ncc7c(C)c(C(C)=O)c(=O)n(C8CCCC8)c7n6)nc5)CC4)CC2)C3)n1 [CPD-173, 2-((2-(1-((4-(6-((6-acetyl-8-cyclopentyl-5-methyl-7-oxo-7,8-dihydropyrido[2,3-d]pyrimidin-2-yl)amino)pyridin-3-yl)piperazin-1-yl)methyl)cyclopropane-1-carbonyl)-2-azaspiro[3.3]heptan-6-yl)amino)-N-(6-cyclopropylpyridin-2-yl)-6-(methylamino)nicotinamide]	≤ 0.01	< 0.05	> 80	> 80
CNc1ccc(C(=O)Nc2ccc(N(C)C)nn2)c(NC2CC(C(=O)NCCN3CCN(c4ccc(Nc5ncc6c(C)c(C(C)=O)c(=O)n(C7CCCC7)c6n5)nc4)CC3)C2)n1 (stereo not shown) [CPD-157, 2-((3-((2-(4-(6-((6-acetyl-8-cyclopentyl-5-methyl-7-oxo-7,8-dihydropyrido[2,3-d]pyrimidin-2-yl)amino)pyridin-3-yl)piperazin-1-yl)ethyl)carbamoyl)cyclobutyl)amino)-N-(6-(dimethylamino)pyridazin-3-yl)-6-(methylamino)nicotinamide]	≤ 0.01	0.05 to 0.1	50 to 80	> 80
CNc1ccc(C(=O)Nc2ccc(N(C)C)nn2)c(NC2CC(OCCC(=O)N3CCN(c4ccc(Nc5ncc6c(C)c(C(C)=O)c(=O)n(C7CCCC7)c6n5)nc4)CC3)C2)n1 (stereo not shown) [CPD-178, 2-((3-(3-(4-(6-((6-acetyl-8-cyclopentyl-5-methyl-7-oxo-7,8-dihydropyrido[2,3-d]pyrimidin-2-yl)amino)pyridin-3-yl)piperazin-1-yl)-3-oxopropoxy)cyclobutyl)amino)-N-(6-(dimethylamino)pyridazin-3-yl)-6-(methylamino)nicotinamide]	≤ 0.01	0.05 to 0.1	50 to 80	50 to 80
CNc1ccc(C(=O)Nc2ccc(N(C)C)nn2)c(NC2CN(C(=O)CCN3CCN(c4ccc(Nc5ncc6c(C)c(C(C)=O)c(=O)n(C7CCCC7)c6n5)nc4)CC3)C2)n1 [CPD-186, 2-((1-(3-(4-(6-((6-acetyl-8-cyclopentyl-5-methyl-7-oxo-7,8-dihydropyrido[2,3-d]pyrimidin-2-yl)amino)pyridin-3-yl)piperazin-1-yl)propanoyl)azetidin-3-yl)amino)-N-(6-(dimethylamino)pyridazin-3-yl)-6-(methylamino)nicotinamide]	0.01 to 0.05	> 0.1	50 to 80	50 to 80
CNc1ccc(C(=O)Nc2ccc(N(C)C)nn2)c(NC2CC(NC(=O)CCN3CCN(c4ccc(Nc5ncc6c(C)c(C(C)=O)c(=O)n(C7CCCC7)c6n5)nc4)CC3)C2)n1 (stereo not shown) [CPD-150, 2-((3-(3-(4-(6-((6-acetyl-8-cyclopentyl-5-methyl-7-oxo-7,8-dihydropyrido[2,3-d]pyrimidin-2-yl)amino)pyridin-3-yl)piperazin-1-yl)propanamido)cyclobutyl)amino)-N-(6-(dimethylamino)pyridazin-3-yl)-6-(methylamino)nicotinamide]	≤ 0.01	0.05 to 0.1	50 to 80	> 80
CNc1ccc(C(=O)Nc2ccc(N(C)C)nn2)c(NC2CC3(C2)CN(C(=O)C(F)(F)CN2CCN(c4ccc(Nc5ncc6c(C)c(C(C)=O)c(=O)n(C7CCCC7)c6n5)nc4)CC2)C3)n1 [CPD-208, 2-((2-(3-(4-(6-((6-acetyl-8-cyclopentyl-5-methyl-7-oxo-7,8-dihydropyrido[2,3-d]pyrimidin-2-yl)amino)pyridin-3-yl)piperazin-1-yl)-2,2-difluoropropanoyl)-2-azaspiro[3.3]heptan-6-yl)amino)-N-(6-(dimethylamino)pyridazin-3-yl)-6-(methylamino)nicotinamide]	≤ 0.01	< 0.05	50 to 80	> 80
CNc1ccc(C(=O)Nc2cc(C)n(C)n2)c(NC2CC(CNC(=O)CN3CCN(c4ccc(Nc5ncc6c(C)c(C(C)=O)c(=O)n(C7CCCC7)c6n5)nc4)CC3)C2)n1 (stereo not shown) [CPD-165, 2-((3-((2-(4-(6-((6-acetyl-8-cyclopentyl-5-methyl-7-oxo-7,8-dihydropyrido[2,3-d]pyrimidin-2-yl)amino)pyridin-3-yl)piperazin-1-yl)acetamido)methyl)cyclobutyl)amino)-N-(1,5-dimethyl-1H-pyrazol-3-yl)-6-(methylamino)nicotinamide]	≤ 0.01	> 0.1	50 to 80	> 80
CNc1ccc(C(=O)Nc2ccc(N(C)C)nn2)c(NC2CC3(CC(NC(=O)C(C)(C)N4CCN(c5ccc(Nc6ncc7c(C)c(C(C)=O)c(=O)n(C8CCCC8)c7n6)nc5)CC4)C3)C2)n1 (stereo not shown) [CPD-174, 2-((6-(2-(4-(6-((6-acetyl-8-cyclopentyl-5-methyl-7-oxo-7,8-dihydropyrido[2,3-d]pyrimidin-2-yl)amino)pyridin-3-yl)piperazin-1-yl)-2-methylpropanamido)spiro[3.3]heptan-2-yl)amino)-N-(6-(dimethylamino)pyridazin-3-yl)-6-(methylamino)nicotinamide]	0.01 to 0.05	> 0.1	50 to 80	> 80
